Like-named read-outs stand apart in the source and are kept apart here. Blank lines part the entries; values can stand above or below the molecule they belong to.
Tests used:
[1] = Solubility remark in Table 2 (compound insoluble, no IC50 given); assay type: physicochemical; details: Table 2, cell in place of 4A/4C/5A IC50
KDM4C = biological target: T1, KDM4C (Homo sapiens, UniProt Q9H3R0); test: KDM4C Assay (SAMDI mass spectrometry demethylase assay); assay type: biochemical; details: N-terminal GST-tagged KDM4C 2-372, read-out: 4C IC50
T1 construct: N-terminal GST-tagged KDM4C^2-372 was purchased from BPS Biosciences; GST (N); purchased BPS Biosciences
T1 sequence (Q9H3R0 2-372): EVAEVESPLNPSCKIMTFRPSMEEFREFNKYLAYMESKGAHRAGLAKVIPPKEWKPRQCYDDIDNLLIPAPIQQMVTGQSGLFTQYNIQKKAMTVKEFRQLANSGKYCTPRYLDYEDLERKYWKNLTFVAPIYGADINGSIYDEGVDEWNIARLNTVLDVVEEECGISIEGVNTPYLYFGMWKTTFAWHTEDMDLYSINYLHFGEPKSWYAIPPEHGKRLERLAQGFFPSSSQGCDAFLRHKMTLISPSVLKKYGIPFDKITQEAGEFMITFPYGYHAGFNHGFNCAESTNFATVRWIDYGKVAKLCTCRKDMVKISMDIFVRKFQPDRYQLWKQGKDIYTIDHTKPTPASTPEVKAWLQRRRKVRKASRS
Procedure: (§1) N-terminal GST-tagged KDM4C^2-372 was purchased from BPS Biosciences. Peptides were synthesized by BioPeptide and all other reagents were purchased from Sigma-Aldrich at the highest level of purity possible. Assays were performed in a 50 μL volume in 384-well V-bottom polypropylene microplates (Greiner) at 25° C. Optimized 1× assay buffer was 50 mM HEPES (pH=8.0), 100 μM sodium ascorbate, 20 mM NaCl, 10 μM ammonium iron sulfate, 1 mM tris(2-carboxyethyl)phosphine (TCEP), 0.002% Tween-20, and 0.005% BSG. For compound screening, 35 μL of KDM4C^2-372 (final concentration, f.c.=5 nM) was added using a Multidrop Combi and preincubated with 1 μL of test compound (f.c.=10 μM) for 30 minutes and subsequently 15 μL of peptide with the following sequence NH2-ARTKQTAR(Kme3)STGGKAPRKQLA(K-Ahx-Biotin)-amide (f.c.=500 nM) and 2-oxoglutarate (f.c.=15 μM) was added by Multidrop Combi to begin the reaction. Reactions proceeded for 150 minutes and were stopped by the addition of 5 μL of formic acid (f.c.=0.5%) using a Multidrop Combi and then analyzed by SAMDI Tech Inc.
(§2) SAMDI Tech analyzed all reactions using self-assembled monoloayer desorption/ionization technology as previously described (Gerard-Levin Z A, Scholle M D, Eisenberg A H, et al.: High-throughput screening of small molecule libraries using SAMDI mass spectrometry. ACS Comb Sci 2011; 13:347-350). Briefly, a 2 μL sample of the stopped demethylase reactions were transferred to a SAMDI array coated with 384 biotin-neutravidin spots using a 384-channel pipet station. The SAMDI arrays were incubated for 1 h in a humidified chamber, followed by washing of the surface with deionized ultra-filtered water (DIUF) and drying under nitrogen. A matrix of 30 mg/ml 2′,4′,6′-Trihydroxyacetophenone monohydrate (THAP) in acetone was applied using a TPP Mosquito 1.2 μL tip by dispensing 50 nL on each of the 384 spots on the array. SAMDI-MS was run using acquisition method ReflectorPositiveUTX. The % conversion of substrate to product was calculated using the AUC of the substrate and product peptide peaks.
(§3) An IC50 value was determined by contacting various concentrations of a test compound with one of the KDM4A, KDM4C or KDMSC enzyme constructs and plotting a dose-response curve which associates the amount of inhibition of the enzyme relative to the concentration of the test compound. From the curve, the IC50 value (which represents the concentration of the test compound necessary to inhibit maximal enzymatic activity by 50%) was determined. Additionally, the slope of the linear range of the plotted curve, which indicates the speed with which the curve rises between the minimum and maximum, was calculated.

KDM5A = biological target: T2, KDM5A (Homo sapiens, UniProt P29375); test: KDM5A Assay (SAMDI mass spectrometry demethylase assay); assay type: biochemical; details: C-terminal FLAG-tagged KDM5A 1-1090, read-out: 5A IC50
T2 construct: C-terminal FLAG-tagged KDM5A^1-1090 was purchased from BPS Biosciences; FLAG (C); purchased BPS Biosciences
T2 sequence (P29375 1-1090): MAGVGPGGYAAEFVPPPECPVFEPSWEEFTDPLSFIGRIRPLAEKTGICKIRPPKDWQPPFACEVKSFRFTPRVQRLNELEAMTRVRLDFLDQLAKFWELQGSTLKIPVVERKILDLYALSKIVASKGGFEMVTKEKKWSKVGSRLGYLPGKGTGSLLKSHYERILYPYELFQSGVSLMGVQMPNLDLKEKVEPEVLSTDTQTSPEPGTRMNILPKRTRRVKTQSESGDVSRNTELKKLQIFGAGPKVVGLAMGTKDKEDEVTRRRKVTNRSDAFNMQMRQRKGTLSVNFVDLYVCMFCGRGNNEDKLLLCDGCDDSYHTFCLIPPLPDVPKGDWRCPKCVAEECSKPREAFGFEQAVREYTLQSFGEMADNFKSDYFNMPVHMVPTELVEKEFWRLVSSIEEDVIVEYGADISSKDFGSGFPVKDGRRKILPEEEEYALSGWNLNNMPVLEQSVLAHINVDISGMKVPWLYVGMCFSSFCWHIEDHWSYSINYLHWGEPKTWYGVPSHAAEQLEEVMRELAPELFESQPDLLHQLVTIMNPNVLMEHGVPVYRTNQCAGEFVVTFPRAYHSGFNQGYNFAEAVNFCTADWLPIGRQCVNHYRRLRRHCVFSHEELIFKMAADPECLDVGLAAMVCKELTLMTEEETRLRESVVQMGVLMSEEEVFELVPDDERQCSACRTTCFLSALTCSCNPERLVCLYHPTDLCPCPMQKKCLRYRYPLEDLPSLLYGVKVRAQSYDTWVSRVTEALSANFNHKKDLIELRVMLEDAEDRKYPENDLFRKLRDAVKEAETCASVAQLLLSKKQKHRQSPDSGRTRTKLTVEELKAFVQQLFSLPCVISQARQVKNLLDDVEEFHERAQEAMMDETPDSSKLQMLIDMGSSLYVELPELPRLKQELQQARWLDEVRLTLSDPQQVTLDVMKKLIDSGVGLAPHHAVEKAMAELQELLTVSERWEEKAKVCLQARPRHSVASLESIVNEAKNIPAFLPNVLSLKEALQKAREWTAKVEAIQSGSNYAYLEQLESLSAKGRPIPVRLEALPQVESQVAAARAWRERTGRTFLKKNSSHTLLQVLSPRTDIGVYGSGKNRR
Procedure: as §1, with “C-terminal FLAG-tagged KDM5A^1-1090” for “N-terminal GST-tagged KDM4C^2-372”, “[…]” for “KDM4C^2-372”, “f.c.=20” for “f.c.=5”, “NH2-ART[Kme-3]QTARKSTGGKA[K-Ahx-Biot]-amide (f.c.=250” for “NH2-ARTKQTAR(Kme3)STGGKAPRKQLA(K-Ahx-Biotin)-amide (f.c.=500”
as §2, §3

- Solubility remark given instead of IC50 values [1]: Insoluble
SMILES: Cc1ccccc1-n1ncc(Nc2cnccc2C(=O)O)c1C [Compound 50, 3-((5-methyl-1-(o-tolyl)-1H-pyrazol-4-yl)amino)isonicotinic acid]

- IC50 (KDM4C; numeric bound): > 100 µM
- IC50 (KDM5A; numeric bound): > 100 µM
SMILES: Cc1nn([C@H]2CCN(C)C2)cc1Nc1cnccc1C(=O)NCCO [Compound 121, (S)—N-(2-hydroxyethyl)-3-((3-methyl-1-(1-methylpyrrolidin-3-yl)-1H-pyrazol-4-yl)amino)isonicotinamide]

- IC50 (KDM4C; class symbols): 0.1 to 1 µM
- IC50 (KDM5A; class symbols): 0.1 to 1 µM
SMILES: Cc1nn(C2CCCN(C3CCC3)CC2)cc1Nc1cnccc1C(=O)O (single isomer, unassigned) [Compound 120]

The remaining lines, values behind:

SMILES: Cn1nc(-c2ccncc2)cc1Nc1cnccc1C(=O)O [Compound 44, 3-((1-methyl-3-(pyridin-4-yl)-1H-pyrazol-5-yl)amino) isonicotinic acid]
- Solubility remark given instead of IC50 values [1]: Insoluble

SMILES: Cc1c(Nc2cnccc2C(=O)O)nn(C)c1-c1ccccc1 [Compound 54, 3-((1,4-dimethyl-5-phenyl-1H-pyrazol-3-yl)amino)isonicotinic acid]
- Solubility remark given instead of IC50 values [1]: Insoluble
